Experimental data published in patent US11981686B2, “Urea compound having substituent” (DAIICHI SANKYO COMPANY, LIMITED, priority 2019, dated 2024).

Target: SIRT6 enzyme (Homo sapiens, UniProt Q8N6T7)
Test: Measurement of deacetylation activity (SIRT6, AlphaLISA, H3K9(Ac) peptide)
Type: biochemical
Details: SIRT6 25 ng/mL, H3K9(Ac) biotin peptide 2 nM, NAD 10 μM, room temperature 30 minutes, duplicate
Method: The reaction was performed in duplicate using a white 384-well plate (3824, Corning or 6008350, PerkinElmer) at a final reaction liquid volume of 20.1 μL. As a control for calculating the enzyme activity, the enzyme-added (DMSO (+)) and enzyme-free (DMSO (−)) wells were set at n=8. Test substances (examples of final concentrations: 0.046, 0.14, 0.41, 1.2, 3.7, 11, 33, and 100 μM) at a concentration of 100 times or 0.1 μL of DMSO was dispensed into the plate and 5 μL of SIRT6 enzyme (prepared by Daiichi Sankyo RD Novare Co., Ltd., final concentration: 25 ng/mL) diluted with an assay buffer (10 mM Tris-HCl pH of 8.0, 0.1% BSA, 0.01% Tween 20, 1 mM DTT, 12.5% Glycerol) was added thereto. The enzymatic reaction was started by adding 5 μL of a mixed solution [Lys(Ac)9]-Histone H3 (1-21)-NH2, H3K9 (Ac), biotin-labeled, amide (AnaSpec, AS-64190, final concentration: 2 nM) and β-nicotinamide adenine dinucleotide (Sigma-Aldrich, N8285-15VL, final concentration: 10 μM), and the reaction was performed at room temperature for 30 minutes. 10 μL of a mixed solution of nicotinamide (Sigma-Aldrich, 72340-100G, final concentration: 100 mM) prepared with AlphaLISA Epigenetics Buffer (PerkinElmer, AL008C), AlphaLISA Anti-unmodified Histone H3 Lysine 9/Lysine 27 (H3K9/K27) Acceptor Beads (PerkinElmer, AL138, final concentration: 10 μg/mL), and AlphaScreen Streptavidin Donor beads (PerkinElmer, 6760002, final concentration: 5 μg/mL) was added thereto, the reaction was performed at room temperature for 60 minutes and then stopped, and acetylation was detected. The emission intensity was measured by EnVision (PerkinElmer).
The relative enzyme activity (%) of the test substance was calculated by the following equation. Relative enzyme activity (%)=[(emission intensity of test substance-added well−emission intensity of DMSO (−) well)/(emission intensity of DMSO (+) well−emission intensity of DMSO (−) well)]×100
The EC150 (the concentration of the compound showing a relative enzyme activity of 150%) of the test substance was calculated based on Sigmoidal dose-response (variable slope) of GraphPad Prism (GraphPad Software) using the value of the relative enzyme activity (%) at each concentration, and the results are listed in Tables 1-1 to 1-5.

SIRT6 enzyme, sequence (Q8N6T7 whole entry, species assumed): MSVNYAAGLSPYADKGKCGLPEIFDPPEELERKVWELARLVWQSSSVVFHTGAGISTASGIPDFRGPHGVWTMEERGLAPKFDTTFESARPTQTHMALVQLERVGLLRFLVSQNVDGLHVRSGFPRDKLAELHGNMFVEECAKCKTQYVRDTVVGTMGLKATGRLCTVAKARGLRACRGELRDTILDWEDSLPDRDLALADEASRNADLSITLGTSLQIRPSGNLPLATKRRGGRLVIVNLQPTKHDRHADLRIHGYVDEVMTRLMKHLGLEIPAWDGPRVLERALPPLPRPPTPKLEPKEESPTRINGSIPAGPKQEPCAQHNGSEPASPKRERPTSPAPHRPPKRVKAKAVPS

SMILES	EC150 (the concentration of the compound showing a relative enzyme activity of 150%) [μm]
CNC(=O)Nc1nc2c(s1)C1CN(C(=O)OC)CC(C2)N1c1nc(C23CC(C(F)F)(C2)C3)no1 (stereo not drawn) [Example 135, Methyl 10-{3-[3-(difluoromethyl)bicyclo[1.1.1]pentan-1-yl]-1,2,4-oxadiazol-5-yl}-2-[(methylcarbamoyl)amino]-4,7,8,9-tetrahydro-4,8-epimino[1,3]thiazolo[5,4-d]azocine-6(5H)-carboxylate]	2.1
CNC(=O)Nc1nc2c(s1)C1CN(C(=O)OC)CC(C2)N1c1nc(C23CCC(F)(CC2)C3)no1 (stereo not drawn) [Example 133, Methyl 10-[3-(4-fluorobicyclo[2.2.1]heptan-1-yl)-1,2,4-oxadiazol-5-yl]-2-[(methylcarbamoyl)amino]-4,7,8,9-tetrahydro-4,8-epimino[1,3]thiazolo[5,4-d]azocin-6(5H)-carboxylate]	1.4
CC(C)(O)CNC(=O)Nc1nc2c(s1)CN(c1nc(C3CCC(F)(F)CC3)no1)CC2 [Example 88, N-{5-[3-(4,4-difluorocyclohexyl)-1,2,4-oxadiazol-5-yl]-4,5,6,7-tetrahydro[1,3]thiazolo[5,4-c]pyridin-2-yl}-N′-(2-hydroxy-2-methylpropyl)urea]	1.1
CNC(=O)Nc1nc2c(s1)C1CN(C(=O)OC)CC(C2)N1c1nc(C2CCC(F)(F)CC2)no1 (stereo not drawn) [Example 132, Methyl 10-[3-(4,4-difluorocyclohexyl)-1,2,4-oxadiazol-5-yl]-2-[(methylcarbamoyl)amino]-4,7,8,9-tetrahydro-4,8-epimino[1,3]thiazolo[5,4-d]azocine-6(5H)-carboxylate]	0.39
COc1ccc2oc(N3[C@@H]4COC[C@H]3c3sc(NC(=O)N[C@@H]5CCOC5)nc3C4)nc2c1 [Example 47, N-[(4S,8S)-10-(5-methoxy-1,3-benzoxazol-2-yl)-4,7,8,9-tetrahydro-5H-4,8-epiminooxocino[5,4-d][1,3]thiazol-2-yl]-N′-[(3R)-oxolan-3-yl]urea]	0.83
C[C@H](CO)NC(=O)Nc1nc2c(s1)C1CCC(C2)N1c1nc2cc(S(C)(=O)=O)ccc2o1 (stereo partly drawn) [Example 152, N-[(2R)-1-hydroxypropan-2-yl]-N′-{9-[5-(methanesulfonyl)-1,3-benzoxazol-2-yl]-5,6,7,8-tetrahydro-4H-5,8-epiminocyclohepta[d][1,3]thiazol-2-yl}urea]	2.7
C[C@@H](CO)NC(=O)Nc1nc2c(s1)[C@@H]1COC[C@H](C2)N1c1ncc(-c2cccc(OC(F)F)n2)o1 [Example 169, N-[(4S,8S)-10-{5-[6-(difluoromethoxy)pyridin-2-yl]-1,3-oxazol-2-yl}-4,7,8,9-tetrahydro-5H-4,8-epiminooxocino[5,4-d][1,3]thiazol-2-yl]-N′-[(2S)-1-hydroxypropan-2-yl]urea]	0.66
C[C@@H](O)CNC(=O)Nc1nc2c(s1)CN(c1cc(C3CCC(F)(F)CC3)on1)CC2 [Example 153, N-{5-[5-(4,4-difluorocyclohexyl)-1,2-oxazol-3-yl]-4,5,6,7-tetrahydro[1,3]thiazolo[5,4-c]pyridin-2-yl}-N′-[(2R)-2-hydroxypropyl]urea]	2.1
CC(C)(O)CNC(=O)Nc1nc2c(s1)[C@@H]1COC[C@H](C2)N1c1nc2cc(C#N)c(F)cc2o1 [Example 55, N-[(4S,8S)-10-(5-cyano-6-fluoro-1,3-benzoxazol-2-yl)-4,7,8,9-tetrahydro-5H-4,8-epiminooxocino[5,4-d][1,3]thiazol-2-yl]-N′-(2-hydroxy-2-methylpropyl)urea]	2.3
